Source: the supplement of paper PMC4932681

Columns and labels:
BT-474 Tam2 [1] = assay: drug sensitivity score (DSS) (DSS (dimensionless)); higher = more sensitive; extreme values may be limits of the assay; details: 4-OH-tamoxifen in medium 1 µM; 72 h
Method: (§1)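 FIMM FO2B library drugs were tested at 5 concentrations (10,000-fold range) for 72 h, with CellTiter-Glo viability normalised to DMSO and benzethonium chloride controls. The Drug Sensitivity Score (DSS) is computed from the fitted logistic dose-response curve (area-based; 0 = inactive). Resistant lines and the 'in 1µM tamoxifen' arms were tested in 1 µM 4-OH-tamoxifen.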

T-47D [2] = assay: as above; details: 72 h
Method: as §1

BT-474 Tam1 [3] = assay: as above; details: 4-OH-tamoxifen in medium 1 µM; 72 h
Method: as §1

ZR-75-1 [4] = assay: as above; details: 72 h
Method: as §1

MCF-7 [5] = assay: as above; details: 72 h
Method: as §1

MCF-7 Tam1 [6] = assay: as above; details: 4-OH-tamoxifen in medium 1 µM; 72 h
Method: as §1

ZR-75-1 Tam1 [7] = assay: as above; details: 4-OH-tamoxifen in medium 1 µM; 72 h
Method: as §1

BT-474 [8] = assay: as above; details: 72 h
Method: as §1

T-47D Tam1 [9] = assay: as above; details: 4-OH-tamoxifen in medium 1 µM; 72 h
Method: as §1

ZR-75-1 Tam2 [10] = assay: as above; details: 4-OH-tamoxifen in medium 1 µM; 72 h
Method: as §1

T-47D Tam2 = assay: as above; details: 4-OH-tamoxifen in medium 1 µM; 72 h
Method: as §1

BT-474 Tam2 [11] = assay: relative IC50 (midpoint of fitted logistic curve, plateau may be below 50% inhibition; CellTiter-Glo viability); higher = less potent; details: 4-OH-tamoxifen in medium 1 µM; 72 h
Method: (§2)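 FIMM FO2B library drugs were plated at 5 concentrations spanning a 10,000-fold range in 384-well plates. Cells were incubated for 72 h at 37 °C and viability was read by CellTiter-Glo, normalised to DMSO (0% inhibition) and 100 µM benzethonium chloride (100% inhibition). IC50 values come from logistic dose-response fits (Breeze pipeline). Tamoxifen-resistant lines and the 'in 1µM tamoxifen' parental arms were tested in medium with 1 µM 4-OH-tamoxifen.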

T-47D [12] = assay: as above; details: 72 h
Method: as §2

BT-474 Tam1 [13] = assay: as above; details: 4-OH-tamoxifen in medium 1 µM; 72 h
Method: as §2

ZR-75-1 [14] = assay: as above; details: 72 h
Method: as §2

MCF-7 [15] = assay: as above; details: 72 h
Method: as §2

MCF-7 Tam1 [16] = assay: as above; details: 4-OH-tamoxifen in medium 1 µM; 72 h
Method: as §2

ZR-75-1 Tam1 [17] = assay: as above; details: 4-OH-tamoxifen in medium 1 µM; 72 h
Method: as §2

BT-474 [18] = assay: as above; details: 72 h
Method: as §2

ZR-75-1 Tam2 [19] = assay: as above; details: 4-OH-tamoxifen in medium 1 µM; 72 h
Method: as §2

T-47D Tam1 [20] = assay: as above; details: 4-OH-tamoxifen in medium 1 µM; 72 h
Method: as §2

relative IC50 (BT-474 Tam2 [11]) | relative IC50 (T-47D [12]; 4-OH-tamoxifen in medium 0 µM) | relative IC50 (T-47D [12]; 4-OH-tamoxifen in medium 1 µM) | relative IC50 (BT-474 Tam1 [13]) | relative IC50 (MCF-7 [15]; 4-OH-tamoxifen in medium 0 µM) | relative IC50 (MCF-7 Tam1 [16]) | relative IC50 (BT-474 [18]; 4-OH-tamoxifen in medium 0 µM) | relative IC50 (BT-474 [18]; 4-OH-tamoxifen in medium 1 µM) | relative IC50 (MCF-7 [15]; 4-OH-tamoxifen in medium 1 µM) | relative IC50 (T-47D Tam1 [20]) | SMILES | drug sensitivity score (BT-474 Tam2 [1]) | drug sensitivity score (T-47D [2]; 4-OH-tamoxifen in medium 0 µM) | drug sensitivity score (T-47D [2]; 4-OH-tamoxifen in medium 1 µM) | drug sensitivity score (BT-474 Tam1 [3]) | drug sensitivity score (ZR-75-1 [4]; 4-OH-tamoxifen in medium 0 µM) | drug sensitivity score (ZR-75-1 [4]; 4-OH-tamoxifen in medium 1 µM) | drug sensitivity score (MCF-7 [5]; 4-OH-tamoxifen in medium 0 µM) | drug sensitivity score (MCF-7 [5]; 4-OH-tamoxifen in medium 1 µM) | drug sensitivity score (MCF-7 Tam1 [6]) | drug sensitivity score (ZR-75-1 Tam1 [7]) | drug sensitivity score (BT-474 [8]; 4-OH-tamoxifen in medium 0 µM) | drug sensitivity score (BT-474 [8]; 4-OH-tamoxifen in medium 1 µM) | drug sensitivity score (T-47D Tam1 [9]) | drug sensitivity score (ZR-75-1 Tam2 [10]) | drug sensitivity score (T-47D Tam2) | relative IC50 (ZR-75-1 [14]; 4-OH-tamoxifen in medium 0 µM) | relative IC50 (ZR-75-1 [14]; 4-OH-tamoxifen in medium 1 µM) | relative IC50 (ZR-75-1 Tam1 [17]) | relative IC50 (ZR-75-1 Tam2 [19])
3.4 nM | > 1000 nM | > 1000 nM | 2.12 nM | > 1000 nM | > 1000 nM | 13.4 nM | 5.56 nM |  |  | C=CC(=O)N1CCC[C@@H](n2nc(-c3ccc(Oc4ccccc4)cc3)c3c(N)ncnc32)C1 | 29 | 0 | 0 | 31.9 | 0 | 0 | 0 | 2.36 | 0 | 0 | 18.1 | 26.2 | 2.76 | 0 | 0.549 | > 1000 nM | > 1000 nM | > 1000 nM | > 1000 nM
> 1000 nM | > 1000 nM |  | > 1000 nM | 129 nM | > 1000 nM | > 1000 nM | > 1000 nM | > 1000 nM |  | NC(=O)Nc1cc(-c2cccc(F)c2)sc1C(=O)N[C@H]1CCCNC1 [AZD7762] | 0 | 0 | 2 | 0 | 0 | 0 | 3.41 | 0 | 0 | 0 | 0 | 0 | 3 | 0 | 2.77 |  | > 1000 nM | > 1000 nM | > 1000 nM
> 10000 nM |  | > 10000 nM |  |  | > 10000 nM | > 10000 nM |  |  |  | Cc1ccc(-n2nc(C(C)(C)C)cc2NC(=O)Nc2ccc(OCCN3CCOCC3)c3ccccc23)cc1 [Doramapimod (BIRB 796)] | 0 | 0 | 0 | 1.04 | 0 | 0 | 0.173 | 0.239 | 0 | 0 | 0 | 0.211 | 0.342 | 0 | 1.06 | > 10000 nM | > 10000 nM | > 10000 nM | > 10000 nM
65.9 nM | > 1000 nM | > 1000 nM | 89.4 nM | > 1000 nM | > 1000 nM | 113 nM | 82.4 nM |  |  | CS(=O)(=O)CCNCc1ccc(-c2ccc3ncnc(Nc4ccc(OCc5cccc(F)c5)c(Cl)c4)c3c2)o1 [Lapatinib] | 12.8 | 0 | 0 | 11.6 | 0 | 0 | 0 | 1.43 | 0 | 0 | 8.29 | 12.2 | 4 | 0 | 0.567 | > 1000 nM | > 1000 nM | > 1000 nM | > 1000 nM

The remaining lines, values behind:

SMILES | relative IC50 (BT-474 Tam2 [11]) | relative IC50 (T-47D [12]; 4-OH-tamoxifen in medium 0 µM) | relative IC50 (T-47D [12]; 4-OH-tamoxifen in medium 1 µM) | relative IC50 (BT-474 Tam1 [13]) | relative IC50 (MCF-7 [15]; 4-OH-tamoxifen in medium 0 µM) | relative IC50 (MCF-7 Tam1 [16]) | relative IC50 (BT-474 [18]; 4-OH-tamoxifen in medium 0 µM) | relative IC50 (BT-474 [18]; 4-OH-tamoxifen in medium 1 µM) | relative IC50 (MCF-7 [15]; 4-OH-tamoxifen in medium 1 µM) | relative IC50 (T-47D Tam1 [20]) | drug sensitivity score (BT-474 Tam2 [1]) | drug sensitivity score (T-47D [2]; 4-OH-tamoxifen in medium 0 µM) | drug sensitivity score (T-47D [2]; 4-OH-tamoxifen in medium 1 µM) | drug sensitivity score (BT-474 Tam1 [3]) | drug sensitivity score (ZR-75-1 [4]; 4-OH-tamoxifen in medium 0 µM) | drug sensitivity score (ZR-75-1 [4]; 4-OH-tamoxifen in medium 1 µM) | drug sensitivity score (MCF-7 [5]; 4-OH-tamoxifen in medium 0 µM) | drug sensitivity score (MCF-7 [5]; 4-OH-tamoxifen in medium 1 µM) | drug sensitivity score (MCF-7 Tam1 [6]) | drug sensitivity score (ZR-75-1 Tam1 [7]) | drug sensitivity score (BT-474 [8]; 4-OH-tamoxifen in medium 0 µM) | drug sensitivity score (BT-474 [8]; 4-OH-tamoxifen in medium 1 µM) | drug sensitivity score (T-47D Tam1 [9]) | drug sensitivity score (ZR-75-1 Tam2 [10]) | drug sensitivity score (T-47D Tam2) | relative IC50 (ZR-75-1 [14]; 4-OH-tamoxifen in medium 0 µM) | relative IC50 (ZR-75-1 [14]; 4-OH-tamoxifen in medium 1 µM) | relative IC50 (ZR-75-1 Tam1 [17]) | relative IC50 (ZR-75-1 Tam2 [19])
CN(C)C/C=C/C(=O)Nc1cc2c(Nc3ccc(F)c(Cl)c3)ncnc2cc1O[C@H]1CCOC1 [Afatinib (BIBW2992, Tovok)] | 13.1 nM | > 1000 nM | > 1000 nM | 12.4 nM | > 1000 nM | > 1000 nM | 25.7 nM | 15.8 nM |  |  | 21.8 | 0 | 0 | 21.9 | 0 | 0 | 0 | 0.328 | 0 | 0 | 15.3 | 20.5 | 1.83 | 0 | 0.583 | > 1000 nM | > 1000 nM | > 1000 nM | > 1000 nM
CC(C)(C)NC(=O)[C@H]1CC[C@H]2[C@@H]3CC[C@H]4NC(=O)C=C[C@]4(C)[C@H]3CC[C@]12C [Finasteride] |  | > 10000 nM | > 10000 nM |  | > 10000 nM | > 10000 nM | > 10000 nM | > 10000 nM |  |  | 0.793 | 0 | 0 | 1.69 | 0 | 0 | 0 | 0.553 | 0 | 0 | 0 | 0 | 0.762 | 0 | 0.298 | > 10000 nM | > 10000 nM | > 10000 nM | > 10000 nM
CC(C)Cn1cnc2c(N)nc3ccccc3c21 [Imiquimod] |  |  |  | > 10000 nM | > 10000 nM | > 10000 nM | > 10000 nM |  |  |  | 0 | 0.182 | 0 | 0 | 0 | 0 | 0 | 0.399 | 0 | 0 | 0 | 0.268 | 1.59 | 0 | 0.195 | > 10000 nM | > 10000 nM | > 10000 nM | > 10000 nM
CO[C@@]12[C@H](COC(N)=O)C3=C(C(=O)C(C)=C(N)C3=O)N1C[C@@H]1N[C@@H]12 [Mitomycin C] | > 10000 nM |  | > 10000 nM | > 10000 nM |  | > 10000 nM | > 10000 nM | > 10000 nM |  | 3570 nM | 0 | 0.988 | 0 | 0 | 0.734 | 0.75 | 0.369 | 0.228 | 0 | 1.75 | 0 | 0 | 1.35 | 1.28 | 0.0558 |  |  |  | 
